Measured values: patent US20100029620A1, “SUBSTITUTED TRIAZOLINE, TETRAZOLONE AND IMIDAZOLONE DERIVATIVES FOR USE AS A MEDICINE” (JANSSEN PHARMACEUTICA N.V., priority 2004, published 2010)

What was measured:
[1] = biological target: T1, human adrenergic-α2A receptor (Homo sapiens, UniProt P08913); experiment: Radioligand binding experiment for α2A-adrenoceptor ([3H]-raulwolscine competition, CHO cell membranes); conditions: [3H]raulwolscine 1 nM, membranes of CHO cells transfected with human α2A receptor; read-out: pIC50 α2A (converted)
T1 construct: expressed in transfected cells; membrane preparation
T1 sequence (P08913 1-465): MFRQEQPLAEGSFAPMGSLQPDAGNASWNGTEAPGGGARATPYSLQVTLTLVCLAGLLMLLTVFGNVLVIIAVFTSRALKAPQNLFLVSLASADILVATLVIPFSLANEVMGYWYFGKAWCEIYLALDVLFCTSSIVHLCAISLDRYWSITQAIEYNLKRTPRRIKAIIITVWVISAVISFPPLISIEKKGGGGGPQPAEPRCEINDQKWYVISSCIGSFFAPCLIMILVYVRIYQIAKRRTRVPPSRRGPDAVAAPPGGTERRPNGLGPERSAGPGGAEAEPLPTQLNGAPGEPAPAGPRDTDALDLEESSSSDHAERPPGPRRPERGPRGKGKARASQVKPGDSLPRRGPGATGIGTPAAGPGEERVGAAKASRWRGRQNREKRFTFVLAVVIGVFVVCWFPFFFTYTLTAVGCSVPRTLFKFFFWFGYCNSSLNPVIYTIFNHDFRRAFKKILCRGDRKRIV
Procedure: (§1) The interaction of the compounds of Formula (I) with α2C-adrenoceptor receptors was assessed in in vitro radioligand binding experiments. In general, a low concentration of a radioligand with a high binding affinity for a particular receptor or transporter is incubated with a sample of a tissue preparation enriched in a particular receptor or transporter or with a preparation of cells expressing cloned human receptors in a buffered medium. During the incubation, the radioligand binds to the receptor or transporter. When equilibrium of binding is reached, the receptor bound radioactivity is separated from the non-bound radioactivity, and the receptor- or transporter-bound activity is counted. The interaction of the test compounds with the receptor is assessed in competition binding experiments. Various concentrations of the test compound are added to the incubation mixture containing the receptor- or transporter preparation and the radioligand. The test compound in proportion to its binding affinity and its concentration inhibits binding of the radioligand. The radioligand used for […] receptor binding was [^3H]-raulwolscine.
(§2) CHO cells, stabile transfected with human adrenergic-α2A-, -α2B or α2C receptor cDNA, were cultured in Dulbecco's Modified Eagle's Medium (DMEM)/Nutrient mixture Ham's F12 (ratio 1:1)(Gibco, Gent-Belgium) supplemented with 10% heat inactivated fetal calf serum (Life Technologies, Merelbeke-Belgium) and antibiotics (100 IU/ml penicillin G, 100 μg/ml streptomycin sulphate, 110 μg/ml pyruvic acid and 100 μg/ml L-glutamine). One day before collection, cells were induced with 5 mM sodiumbutyrate. Upon 80-90% of confluence, cells were scraped in phosphate buffered saline without Ca^2+ and Mg^2+ and collected by centrifugation at 1500×g for 10 min. The cells were homogenised in Tris-HCl 50 mM using an Ultraturrax homogenizer and centrifuged for 10 min at 23,500×g. The pellet was washed once by resuspension and rehomogenization and the final pellet was resuspended in Tris-HCl, divided in 1 ml aliquots and stored at −70° C.
(§3) Membranes were thawed and re-homogenized in incubation buffer (glycylglycine 25 mM, pH 8.0). In a total volume of 500 μl, 2-10 μg protein was incubated with [^3H]raulwolscine (NET-722) (New England Nuclear, USA) (1 nM final concentration) with or without competitor for 60 min at 25° C. followed by rapid filtration over GF/B filter using a Filtermate196 harvester (Packard, Meriden, Conn.). Filters were rinsed extensively with ice-cold rinsing buffer (Tris-HCl 50 mM pH 7.4). Filter-bound radioactivity was determined by scintillation counting in a Topcount (Packard, Meriden, CT) and results were expressed as counts per minute (cpm). Non-specific binding was determined in the presence of 1 μM oxymetazoline for hα2A- and hα2B receptors and 1 μM spiroxatrine for hα2C receptors.
(§4) Data from assays in the presence of compound were calculated as a percentage of total binding measured in the absence of test compound. Inhibition curves, plotting percent of total binding versus the log value of the concentration of the test compound, were automatically generated, and sigmoidal inhibition curves were fitted using non-linear regression. The pIC50 values of test compounds were derived from individual curves.

[2] = biological target: T2, human adrenergic-α2C receptor (Homo sapiens, UniProt P18825); experiment: Radioligand binding experiment for α2C-adrenoceptor ([3H]-raulwolscine competition, CHO cell membranes); conditions: [3H]raulwolscine 1 nM, membranes of CHO cells transfected with human α2C receptor; read-out: pIC50 α2C (converted)
T2 construct: expressed in transfected cells; membrane preparation
T2 sequence (P18825 1-462): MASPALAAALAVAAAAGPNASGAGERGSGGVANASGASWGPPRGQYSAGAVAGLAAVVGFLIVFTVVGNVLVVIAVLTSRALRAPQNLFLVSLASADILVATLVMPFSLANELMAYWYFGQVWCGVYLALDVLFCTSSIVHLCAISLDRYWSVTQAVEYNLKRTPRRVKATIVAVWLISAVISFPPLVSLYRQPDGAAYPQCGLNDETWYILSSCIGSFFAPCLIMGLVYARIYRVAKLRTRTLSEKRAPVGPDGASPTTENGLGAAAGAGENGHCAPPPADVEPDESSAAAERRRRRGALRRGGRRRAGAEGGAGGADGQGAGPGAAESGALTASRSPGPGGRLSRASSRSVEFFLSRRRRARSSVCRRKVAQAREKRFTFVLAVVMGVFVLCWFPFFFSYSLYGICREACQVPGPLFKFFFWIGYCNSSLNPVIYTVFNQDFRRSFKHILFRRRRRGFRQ
Procedure: as §1, §2, §3, §4

[3] = biological target: T3, human adrenergic-α2B receptor (Homo sapiens, UniProt P18089); experiment: Radioligand binding experiment for α2B-adrenoceptor ([3H]-raulwolscine competition, CHO cell membranes); conditions: [3H]raulwolscine 1 nM, membranes of CHO cells transfected with human α2B receptor; read-out: pIC50 α2B (converted)
T3 construct: expressed in transfected cells; membrane preparation
T3 sequence (P18089 1-450): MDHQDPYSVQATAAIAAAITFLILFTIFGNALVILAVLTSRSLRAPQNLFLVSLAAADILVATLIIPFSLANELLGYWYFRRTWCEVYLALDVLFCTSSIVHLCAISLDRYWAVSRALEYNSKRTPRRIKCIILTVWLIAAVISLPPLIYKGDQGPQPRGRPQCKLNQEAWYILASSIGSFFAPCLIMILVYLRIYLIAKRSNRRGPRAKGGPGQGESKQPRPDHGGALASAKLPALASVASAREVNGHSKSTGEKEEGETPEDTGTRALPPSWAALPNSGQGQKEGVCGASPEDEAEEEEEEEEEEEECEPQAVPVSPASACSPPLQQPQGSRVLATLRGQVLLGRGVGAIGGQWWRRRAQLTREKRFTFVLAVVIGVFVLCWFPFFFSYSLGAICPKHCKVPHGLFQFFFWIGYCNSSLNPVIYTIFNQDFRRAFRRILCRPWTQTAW
Procedure: as §1, §2, §3, §4

IC50 [1] [µM] | IC50 [2] [µM] | IC50 [3] [µM] | Structure (SMILES)
0.794 | 0.0501 |  | O=c1n(-c2ccc(N3CCOCC3)cc2)cnn1CCNCCOc1ccccc1 [compound 22]
0.00631 | 0.00158 | 0.00126 | C/C(=C\c1ccccc1)CN1CCC(CCn2ncn(-c3ccc(NCCN(C)C)cc3)c2=O)CC1 [compound 41]
0.2 | 0.0251 | 0.2 | O=c1n(-c2ccc(CN3CCN(c4ccccc4)CC3)cc2)cnn1CCNCCOc1ccccc1 [compound 2]
0.398 | 0.0398 |  | O=c1n(CCNCCOc2ccccc2)nnn1-c1ccc(CN2CCOCC2)cc1 [compound 106]
0.398 | 0.0251 | 0.1 | O=c1n(CC2CCN(CCOc3ccccc3)CC2)cnn1CCN1CCOCC1 [compound 67]
> 10 | 0.794 |  | Cc1cc(CN2CCC(Cn3ncn(-c4ccc(CN5CCOCC5)cc4)c3=O)CC2)oc1C [compound 76]
0.398 | 0.0398 |  | C/C(=C\c1ccccc1)CN1CCC(Cn2ncn(-c3ccc(CN4CCOCC4)cc3)c2=O)CC1 [compound 70]
3.16 | 0.251 |  | O=c1n(-c2ccc(CN3CCOCC3)cc2)cnn1CC1CCN(Cc2cc3ccccc3o2)CC1 [compound 77]
0.794 | 0.158 |  | O=c1n(-c2ccc(CN3CCOCC3)cc2)cnn1CC1CCN(Cc2ccc3ccccc3c2)CC1 [compound 74]
0.2 | 0.0126 |  | O=c1n(CC2CCN(CCOc3ccccc3)CC2)cnn1CCN1CCN(Cc2ccc3ncccc3c2)CC1 [compound 126]
> 10 | 1 |  | COc1ccc(N2CCN(c3ccc(-n4cnn(C5CCN(Cc6ccc7c(c6)OCCO7)CC5)c4=O)cc3)CC2)cc1 [compound 56]
0.0631 | 0.0398 |  | C/C(=C\c1ccccc1)CN1CCC(n2cnn(-c3ccc(CN4CCOCC4)cc3)c2=O)CC1 [compound 80]
> 10 | 0.0794 |  | COc1ccc(N2CCN(c3ccc(-n4cnn(C5CCN(C/C(C)=C/c6ccccc6)CC5)c4=O)cc3)CC2)cc1 [compound 57]
0.631 | 0.0794 |  | C/C(=C\c1ccccc1)CN1CCC(n2cnn(Cc3ccc(CN4CCOCC4)cc3)c2=O)CC1 [compound 81]
0.126 | 0.0501 |  | C/C(=C\c1ccc(F)cc1)CN1CCN(CCn2ncn(Cc3ccc(CN)cc3)c2=O)CC1 [compound 35]
2.51 | 0.0501 |  | O=c1n(-c2ccc(CN3CCOCC3)cc2)cnn1CCNCCOc1ccc(F)cc1 [compound 25]
0.0501 | 0.00251 |  | O=c1n(CC2CCN(CCOc3ccccc3)CC2)cnn1CCN1CCN(Cc2cc3ccccc3s2)CC1 [compound 130]
1.26 | 0.0501 |  | COc1ccc(N2CCN(c3ccc(-n4cnn(C5CCN(CCOc6ccccc6)CC5)c4=O)cc3)CC2)cc1 [compound 58]
0.158 | 0.0251 |  | C/C(=C\c1ccccc1)CN1CCC(n2ncn(-c3ccc(CN4CCOCC4)cc3)c2=O)CC1 [compound 69]
1.58 | 0.631 |  | COc1ccc(N2CCN(c3ccc(-n4cnn(Cc5ccc(CN6CCOCC6)cc5)c4=O)cc3)CC2)cc1 [compound 59]

Second part, the molecule before the results:

Structure (SMILES) | IC50 [1] [µM] | IC50 [2] [µM] | IC50 [3] [µM]
O=c1n(-c2ccc(CNCc3ccccc3)cc2)cnn1CCNCCOc1ccccc1 [compound 92] | 0.0251 | 0.00501 | 0.2
O=c1n(-c2ccc(NCc3ccc(F)cc3)cc2)cnn1CC1CCN(CCOc2ccccc2)CC1 [compound 48] | 0.2 | 0.00316 | 0.0251
CC(C)N1CCc2cc(-n3cnn(CCNCCOc4ccccc4)c3=O)ccc2C1 [compound 103] | 0.501 | 0.0251 | 0.794
CN(C)CCNc1ccc(-n2cnn(CCC3CCN(CCOc4ccccc4)CC3)c2=O)cc1 [compound 40] | 0.00398 | 0.000794 | 0.000631
O=c1n(-c2ccc(CNCCc3ccccc3)cc2)cnn1CCNCCOc1ccccc1 [compound 90] | 0.02 | 0.000631 | 0.0501
COc1ccccc1C1CCN(c2ccc(-n3cnn(CCNCCOc4ccccc4)c3=O)cc2)C1 (stereo not drawn) [compound 15] | 0.794 | 0.1 | 
COc1ccc(N2CCN(c3ccc(-n4cnn(CCN(C)CCOc5ccccc5)c4=O)cc3)CC2)cc1 [compound 9] | > 10 | 0.794 | 
CC(C)(C)C(=O)Cn1cnn(CC2CCN(CCOc3ccccc3)CC2)c1=O [compound 132] | 0.0631 | 0.00501 | 
O=c1n(CC2CCN(CCOc3ccccc3)CC2)cnn1CCN1CCN(Cc2cc3ccccc3[nH]2)CC1 [compound 128] | 0.0794 | 0.0126 | 
COc1ccc(N2CCN(c3ccc(-n4cnn(Cc5ccc(CN)cc5)c4=O)cc3)CC2)cc1 [compound 11] | 7.94 | 0.794 | 
CC(NCCOc1ccccc1)C(C)n1ncn(-c2ccc(N3CCN(c4ccc(O)cc4)CC3)cc2)c1=O (single isomer, unassigned) [compound 6] | 7.94 | 0.2 | 
O=c1n(CC2CCN(CCOc3ccccc3)CC2)cnn1CCN1CCN(c2cccc3c2OCCO3)CC1 [compound 127] | 0.0631 | 0.00398 | 
N#Cc1cccc(NCCCN2CCN(CCn3ncn(CC4CCN(CCOc5ccccc5)CC4)c3=O)CC2)c1 [compound 124] | 0.0631 | 0.00158 | 
O=c1n(CC2CCN(CCOc3ccccc3)CC2)cnn1CCN1CCN(Cc2c[nH]c3ccc(F)cc23)CC1 [compound 129] | 0.0501 | 0.002 | 
O=c1n(CC2CCN(CCOc3ccccc3)CC2)cnn1CCN1CC2CC=CCC1CN2c1ccc2ccccc2c1 (stereo not drawn) [compound 131] | 0.126 | 0.00794 | 
